Experimental data reported in US6465228B1, “Levodione reductase” (Roche Vitamins, Inc., priority 1999, dated 2002).
“Also recorded” adds a separate entry of the source.

T1: levodione reductase (Leifsonia aquatica, UniProt Q9LBG2)
T1 construct: The LR is isolated and purified from the cell-free extract of disrupted cells; made in house; host or cells: Corynebacterium aquaticum AKU611 (FERM BP-6448); This is the natural producer and there was no recombinant expression; The enzyme was purified by ammonium sulfate precipitation and DEAE-Sephacel, alkyl Superose and MONO Q chromatography
T1 sequence (Q9LBG2 1-267): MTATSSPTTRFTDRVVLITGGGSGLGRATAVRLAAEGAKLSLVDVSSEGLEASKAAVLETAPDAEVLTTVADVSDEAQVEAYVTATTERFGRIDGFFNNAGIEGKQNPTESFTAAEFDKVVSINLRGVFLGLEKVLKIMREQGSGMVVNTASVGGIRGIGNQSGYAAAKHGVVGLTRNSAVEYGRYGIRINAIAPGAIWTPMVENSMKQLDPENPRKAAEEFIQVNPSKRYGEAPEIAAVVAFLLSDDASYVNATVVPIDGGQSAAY

B1: levodione reductase (Leifsonia aquatica) (protein)
chain: T1 sequence (Q9LBG2 1-267)
notes: The LR is isolated and purified from the cell-free extract of disrupted cells; made in house; host or cells: Corynebacterium aquaticum AKU611 (FERM BP-6448); This is the natural producer and there was no recombinant expression; The enzyme was purified by ammonium sulfate precipitation and DEAE-Sephacel, alkyl Superose and MONO Q chromatography

Key:
levodione reductase [1] = biological target: T1, levodione reductase; test: Co-factor requirement / identification of reaction product; type: biochemical, Corynebacterium aquaticum AKU611; settings: for function as co-factor / electron donor: reduction of levodione to actinol
Experimental: […] To this reaction mixture, 10 Al of a 0.5 M levodione solution were added five times at 6 minute intervals. The reaction mixture was incubated for a further 5 minutes, and extracted with 1 ml of ethyl acetate. The extract was analyzed by gas chromatography (column: HR-20M (Shinwa, Kyoto, Japan) 0.25 mm Ø×30 m), column temperature: 160° C. (constant), injector temperature: 250° C., carrier gas: He (about 1 ml/min.). As a result, the product was identified as being actinol in comparison with a standard sample of actinol.

levodione reductase [2] = biological target: T1, levodione reductase; test: Substrate specificity, standard LR enzyme assay (NADH decrease at 340 nm); type: biochemical, Corynebacterium aquaticum AKU611; settings: for Enzyme Activity: substrate 2 mM final concentration instead of levodione
Experimental: A basal reaction mixture having a total volume of 500 μl includes 100 μl of 1 M potassium phosphate buffer (pH 7.0), 20 μl of 8 mM NADH in 0.2 mM KOH, 10-40 μl of the enzyme solution (i.e., levodione reductase), and water up to a total of 500 μl . This reaction mixture was incubated for 1 minute at 37 ° C. Then, 2 μl of 0.5 M levodione solution were added to give a final concentration of 2 mM, and the whole mixture was incubated for 1 minute at 37 ° C. The levodione reductase enzyme activity was monitored with the decrease of the absorbance of NADH at 340 nm.
In the present invention, one unit of the levodione reductase enzyme activity is defined as the amount of the levodione reductase which catalyzes the oxidation of 1 μmole of NADH per minute.
The substrate specificity of the enzyme was determined using the same enzyme assay method as described under 1, except that various solutions containing different substrates (2 mM final concentration in the reaction mixture) were used instead of levodione.

[3] = system: Corynebacterium aquaticum AKU611; test: Biolog System assimilation of carbon sources; type: cell-based; settings: 96-well plate, BUGM+B medium, 24 hours at 28° C.
Description: Each well contained one of the 96 types of carbon sources in BUGM+B medium (Biolog Universal Growth Media+Blood) (Biolog Inc.).

[4] = substrate: C[C@@H]1CC(=O)CC(C)(C)C1=O; test: Michaelis constant (Km) and maximum velocity (Vmax); type: biochemical, Corynebacterium aquaticum AKU611; settings: other: compound as substrate; pH 7.0; 37.0 °C
Experimental: (§1) The Km and Vmax values of the enzyme were measured using levodione and actinol as the substrates. The basic enzyme assay method is the same as described under 1, but the substrate and the enzyme concentrations were varied.
(§2) The Km and Vmax values were calculated on the basis of the known Michaelis-Menten equation. Km is the concentration of the substrate that gives 50% of the Vmax of the enzyme reaction.

[5] = substrate: C[C@@H]1C[C@@H](O)CC(C)(C)C1=O; test: as above; type: biochemical, Corynebacterium aquaticum AKU611; settings: other: compound as substrate; pH 7.0; 37.0 °C
Experimental: as §1, §2

Molecule	Assimilation [3]	also measured
NC(=O)C1=CN([C@@H]2O[C@H](COP(=O)(O)OP(=O)(O)OC[C@H]3O[C@@H](n4cnc5c(N)ncnc54)[C@H](OP(=O)(O)O)[C@@H]3O)[C@@H](O)[C@H]2O)C=CC1 [NADPH]		actinol detected by gas chromatography (levodione reductase [1]; NADH replaced with NADPH, 30° C.): only a trace amount of actinol was detected; function as co-factor / electron donor (levodione reductase [1]): does not work as an electron donor; also recorded: could not
C[C@@H]1CC(=O)CC(C)(C)C1=O [Levodione, (6R)-2,2,6-trimethylcyclohexane-1,4-dione]		Enzyme Activity (levodione reductase [2]): 5.66 unit/ml; substrate specificity of the enzyme (levodione reductase [2]; substrates 2 mM): the only substrate for which the enzyme exhibited activity
O=C1CCCCC1 [Cyclohexanone]		Enzyme Activity (levodione reductase [2]): Not detected (ND)
OC[C@H]1O[C@@](CO)(O[C@H]2O[C@H](CO)[C@@H](O)[C@H](O)[C@H]2O)[C@@H](O[C@H]2O[C@H](CO)[C@@H](O)[C@H](O)[C@H]2O)[C@@H]1O [C7, D-melezitose]	−	
O=C(O)C[C@@H](O)C(=O)O [F4, D-malic acid]	−	
O=P(O)(O)O[C@H]1O[C@H](CO)[C@@H](O)[C@H](O)[C@H]1O [H10, Glucose-1-phosphate]	−	
OC[C@H]1O[C@@H]2O[C@H]3[C@H](O)[C@@H](O)[C@@H](O[C@H]4[C@H](O)[C@@H](O)[C@@H](O[C@H]5[C@H](O)[C@@H](O)[C@@H](O[C@H]6[C@H](O)[C@@H](O)[C@@H](O[C@H]7[C@H](O)[C@@H](O)[C@@H](O[C@H]8[C@H](O)[C@@H](O)[C@@H](O[C@H]1[C@H](O)[C@H]2O)O[C@@H]8CO)O[C@@H]7CO)O[C@@H]6CO)O[C@@H]5CO)O[C@@H]4CO)O[C@@H]3CO [A3, β-cyclodextrin]	−	
OC[C@H]1O[C@H](O[C@H]2[C@H](O)[C@@H](O)[C@@H](O[C@H]3[C@H](O)[C@@H](O)C(O)O[C@@H]3CO)O[C@@H]2CO)[C@H](O)[C@@H](O)[C@@H]1O (mixture of isomers) [C4, Maltotriitrose]	+	
Inulin [A6]	−	
OC[C@H]1O[C@H](OC[C@H]2O[C@H](OC[C@H]3O[C@H](O[C@]4(CO)O[C@H](CO)[C@@H](O)[C@@H]4O)[C@H](O)[C@@H](O)[C@@H]3O)[C@H](O)[C@@H](O)[C@H]2O)[C@H](O)[C@@H](O)[C@H]1O [D11, Stachyose]	+	
Mannan [A7]	−	
NC(=O)C1=CN([C@@H]2O[C@H](COP(=O)(O)OP(=O)(O)OC[C@H]3O[C@@H](n4cnc5c(N)ncnc54)[C@H](O)[C@@H]3O)[C@@H](O)[C@H]2O)C=CC1 [NADH]		function as co-factor / electron donor (levodione reductase [1]): could serve as a co-factor
COC1OC(CO)C(O)C(O)C1O [C9, α-methyl-D-galactoside]	−	
O=C(O)C[C@H](O)C(=O)O [F5, L-malic acid]	−	
TWEEN ® 80 [A9]	+	
OC[C@H]1O[C@H](OC[C@H]2OC(O)[C@H](O)[C@@H](O)[C@@H]2O)[C@H](O)[C@@H](O)[C@H]1O (stereo partly drawn) [C8, D-melibiose]	+	
O[C@H]1[C@H](O)[C@@H](O)[C@H](O)[C@@H](O)[C@H]1O [B12, m-inositol]	−	
COC1OC(CO)C(O)C(O)C1O [D2, α-methyl-D-mannoside]	−	
B1		Km [4]: 8.5 mM; Vmax [4]: 101.26 unit/mg; Km [5]: 1.36 mM; Vmax [5]: 15.91 unit/mg
